Experimental data reported in ChEMBL document CHEMBL2069175, “Antiplasmodial activities of 4-aminoquinoline-statine compounds” (Bioorg Med Chem Lett, 2012).

Tests used:
[1] = Inhibition of Plasmodium ovale PLM4 using Lys-Glu-Phe-Val-Phe-NPhe-Ala-Leu-Lys as substrate by spectrophotometry
Plasmodium falciparum [2] = assay: microbe, parasite or virus in culture; conditions: W2, 72 h
Description: Antiplasmodial activity against chloroquine-resistant Plasmodium falciparum W2 after 72 hrs by parasite lactate dehydrogenase assay

[3] = Inhibition of Plasmodium falciparum PLM4 using Lys-Glu-Phe-Val-Phe-NPhe-Ala-Leu-Lys as substrate by spectrophotometry
[4] = Inhibition of Plasmodium malariae PLM4 using Lys-Glu-Phe-Val-Phe-NPhe-Ala-Leu-Lys as substrate by spectrophotometry
[5] = Inhibition of Plasmodium vivax PLM4 using Lys-Glu-Phe-Val-Phe-NPhe-Ala-Leu-Lys as substrate by spectrophotometry
Plasmepsin II = Plasmepsin II (Plasmodium falciparum, UniProt P46925); assay: Inhibition of Plasmodium falciparum PLM2 using Lys-Glu-Phe-Val-Phe-NPhe-Ala-Leu-Lys as substrate by spectrophotometry
Chain of Plasmepsin II (P46925 whole entry): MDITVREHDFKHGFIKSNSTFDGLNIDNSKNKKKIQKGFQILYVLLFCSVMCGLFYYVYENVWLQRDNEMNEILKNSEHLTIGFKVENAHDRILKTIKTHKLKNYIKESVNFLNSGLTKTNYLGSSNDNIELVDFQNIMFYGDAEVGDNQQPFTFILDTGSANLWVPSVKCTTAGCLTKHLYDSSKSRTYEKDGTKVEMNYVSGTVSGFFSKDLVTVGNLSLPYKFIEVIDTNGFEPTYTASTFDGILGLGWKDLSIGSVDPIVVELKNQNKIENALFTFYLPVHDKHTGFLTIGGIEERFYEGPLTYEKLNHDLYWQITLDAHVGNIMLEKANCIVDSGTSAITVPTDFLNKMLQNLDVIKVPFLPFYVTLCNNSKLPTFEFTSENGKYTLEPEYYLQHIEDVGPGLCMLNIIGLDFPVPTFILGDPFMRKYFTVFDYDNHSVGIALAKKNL

[6] = Cytotoxicity against human HDF at 100 uM; conditions: HDF cells, read-out: INH
Plasmodium falciparum [7] = assay: Antiplasmodial activity against chloroquine-sensitive Plasmodium falciparum D10; assay type: functional, organism-based
Plasmodium falciparum [8] = assay: Antiplasmodial activity against chloroquine-resistant Plasmodium falciparum W2; assay type: functional, organism-based
Plasmodium falciparum [9] = assay: microbe, parasite or virus in culture; conditions: D10, 72 h
Description: Antiplasmodial activity against chloroquine-sensitive Plasmodium falciparum D10 after 72 hrs by parasite lactate dehydrogenase assay

Cathepsin D = Cathepsin D (Homo sapiens, UniProt P07339); assay: Inhibition of human cathepsin D
Chain of Cathepsin D (P07339 65-162 limits assumed): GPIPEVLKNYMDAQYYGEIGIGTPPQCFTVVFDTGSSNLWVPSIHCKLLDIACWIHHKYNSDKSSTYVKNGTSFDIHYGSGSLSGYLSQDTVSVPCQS
Chain of Cathepsin D (P07339 169-412 limits assumed): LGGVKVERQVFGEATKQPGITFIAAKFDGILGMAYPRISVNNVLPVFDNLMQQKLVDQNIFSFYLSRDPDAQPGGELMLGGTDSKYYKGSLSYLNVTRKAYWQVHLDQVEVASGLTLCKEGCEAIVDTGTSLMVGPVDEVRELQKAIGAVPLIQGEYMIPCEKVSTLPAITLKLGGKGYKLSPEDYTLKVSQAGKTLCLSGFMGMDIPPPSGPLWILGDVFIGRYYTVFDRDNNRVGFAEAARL

Row | SMILES | Ki [1] [nM] | IC50 (Plasmodium falciparum [2]) [nM] | Ki [3] [nM] | Ki [4] [nM] | Ki [5] [nM] | Ki (Plasmepsin II; read-out: Ki) [nM] | cytotoxicity at 100 µM [6] [%] | IC50 (Plasmodium falciparum [7]) [nM] | IC50 (Plasmodium falciparum [8]) [nM] | IC50 (Plasmodium falciparum [9]) [nM] | IC50 (Cathepsin D) [nM] | Ki (Plasmepsin II)
1 | CCCCNC(=O)C[C@H](O)[C@H](CC(C)C)NC(=O)[C@@H](NC(=O)c1ccc(Oc2ccc(C(=O)N[C@@H](CC(C)C)C(=O)N[C@@H](CCCCN)C(=O)NCCCC(C)Nc3cc(OC)cc4cccnc34)cc2)cc1)[C@@H](C)CC (some centres not stated) | 10 | 700 | 0.5 | 1.2 | 1.2 | 0.4 | 50 | 400 | 400 | 400 | – | –
2 | CCCCNC(=O)C[C@H](O)[C@H](CC(C)C)NC(=O)[C@@H](NC(=O)c1ccc(Oc2ccc(C(=O)N[C@@H](CC(C)C)C(=O)N[C@@H](C)C(=O)NCCCNc3ccnc4ccccc34)cc2)cc1)[C@@H](C)CC | 8.1 | 474 | 6.7 | 0.87 | 0.43 | 2.6 | – | – | – | 161 | 300 | –
3 | CCCCNC(=O)C[C@H](O)[C@H](CC(C)C)NC(=O)[C@@H](NC(=O)c1ccc(Oc2ccc(C(=O)NCCCNc3ccnc4cc(Cl)ccc34)cc2)cc1)[C@@H](C)CC | 11 | 78 | 5.4 | 0.93 | 0.7 | 2.3 | – | – | – | 177 | 220 | –
4 | CC(C)C[C@H](NC(=O)OCc1ccccc1)C(=O)N[C@@H](C)C(=O)NCCCNc1ccnc2cc(Cl)ccc12 | – | 1680 | – | – | – | – | – | – | – | 197 | – | Not Active
5 | CCCCNC(=O)C[C@H](O)[C@H](CC(C)C)NC(=O)[C@@H](NC(=O)c1ccc(Oc2ccc(C(=O)OCc3ccccc3)cc2)cc1)[C@@H](C)CC | 0.34 | 4680 | 2.6 | 2.1 | 4.7 | 1.9 | – | – | – | 3850 | – | –
6 | CCCCNC(=O)C[C@H](O)[C@H](CC(C)C)NC(=O)[C@@H](NC(=O)c1ccc(Oc2ccc(C(=O)N[C@@H](C)C(=O)NCCCNc3ccnc4cc(Cl)ccc34)cc2)cc1)[C@@H](C)CC | 8.5 | 64 | 8.7 | 2.4 | 0.48 | 3.8 | – | – | – | 114 | 540 | –
7 | CCN(CC)CCCC(C)Nc1ccnc2cc(Cl)ccc12 (configuration not stated) [CHLOROQUINE] | – | – | – | – | – | – | – | – | – | – | – | Not Active
8 | CCCCNC(=O)C[C@H](O)[C@H](CC(C)C)NC(=O)[C@@H](NC(=O)c1ccc(Oc2ccc(C(=O)NCc3ccccc3)cc2)cc1)[C@@H](C)CC | 1.1 | > 7000 | 20 | 5.8 | 19 | 1.3 | – | – | – | > 7000 | – | –
